# Measurements as given in US10246453B2, “Benzenesulfonamide compounds and their use as therapeutic agents” (Xenon Pharmaceuticals Inc., priority 2016, dated 2019).
# Counter-ions that a name gives are not always drawn.
# Legend:
# [1] = target: NaV1.1 (Homo sapiens (Human), UniProt P35498); experiment: Sodium Influx Assay (Flux), NaV1.1; type: cell-based; conditions: Trex HEK293 cells, ANG2 dye; arithmetic mean
# [2] = target: NaV1.6 (Homo sapiens (Human), UniProt Q9UQD0); experiment: Sodium Influx Assay (Flux), NaV1.6; conditions: read-out: Flux NaV1.6 IC50; Trex HEK293 cells, ANG2 dye; arithmetic mean
# [3] = target: NaV1.5 (Homo sapiens (Human), UniProt Q14524); experiment: Sodium Influx Assay (Flux), NaV1.5; conditions: read-out: Flux NaV1.5 IC50; Trex HEK293 cells, ANG2 dye; arithmetic mean
# NaV1.5, sequence (Q14524 other isoform, or with tags, fused parts or gaps): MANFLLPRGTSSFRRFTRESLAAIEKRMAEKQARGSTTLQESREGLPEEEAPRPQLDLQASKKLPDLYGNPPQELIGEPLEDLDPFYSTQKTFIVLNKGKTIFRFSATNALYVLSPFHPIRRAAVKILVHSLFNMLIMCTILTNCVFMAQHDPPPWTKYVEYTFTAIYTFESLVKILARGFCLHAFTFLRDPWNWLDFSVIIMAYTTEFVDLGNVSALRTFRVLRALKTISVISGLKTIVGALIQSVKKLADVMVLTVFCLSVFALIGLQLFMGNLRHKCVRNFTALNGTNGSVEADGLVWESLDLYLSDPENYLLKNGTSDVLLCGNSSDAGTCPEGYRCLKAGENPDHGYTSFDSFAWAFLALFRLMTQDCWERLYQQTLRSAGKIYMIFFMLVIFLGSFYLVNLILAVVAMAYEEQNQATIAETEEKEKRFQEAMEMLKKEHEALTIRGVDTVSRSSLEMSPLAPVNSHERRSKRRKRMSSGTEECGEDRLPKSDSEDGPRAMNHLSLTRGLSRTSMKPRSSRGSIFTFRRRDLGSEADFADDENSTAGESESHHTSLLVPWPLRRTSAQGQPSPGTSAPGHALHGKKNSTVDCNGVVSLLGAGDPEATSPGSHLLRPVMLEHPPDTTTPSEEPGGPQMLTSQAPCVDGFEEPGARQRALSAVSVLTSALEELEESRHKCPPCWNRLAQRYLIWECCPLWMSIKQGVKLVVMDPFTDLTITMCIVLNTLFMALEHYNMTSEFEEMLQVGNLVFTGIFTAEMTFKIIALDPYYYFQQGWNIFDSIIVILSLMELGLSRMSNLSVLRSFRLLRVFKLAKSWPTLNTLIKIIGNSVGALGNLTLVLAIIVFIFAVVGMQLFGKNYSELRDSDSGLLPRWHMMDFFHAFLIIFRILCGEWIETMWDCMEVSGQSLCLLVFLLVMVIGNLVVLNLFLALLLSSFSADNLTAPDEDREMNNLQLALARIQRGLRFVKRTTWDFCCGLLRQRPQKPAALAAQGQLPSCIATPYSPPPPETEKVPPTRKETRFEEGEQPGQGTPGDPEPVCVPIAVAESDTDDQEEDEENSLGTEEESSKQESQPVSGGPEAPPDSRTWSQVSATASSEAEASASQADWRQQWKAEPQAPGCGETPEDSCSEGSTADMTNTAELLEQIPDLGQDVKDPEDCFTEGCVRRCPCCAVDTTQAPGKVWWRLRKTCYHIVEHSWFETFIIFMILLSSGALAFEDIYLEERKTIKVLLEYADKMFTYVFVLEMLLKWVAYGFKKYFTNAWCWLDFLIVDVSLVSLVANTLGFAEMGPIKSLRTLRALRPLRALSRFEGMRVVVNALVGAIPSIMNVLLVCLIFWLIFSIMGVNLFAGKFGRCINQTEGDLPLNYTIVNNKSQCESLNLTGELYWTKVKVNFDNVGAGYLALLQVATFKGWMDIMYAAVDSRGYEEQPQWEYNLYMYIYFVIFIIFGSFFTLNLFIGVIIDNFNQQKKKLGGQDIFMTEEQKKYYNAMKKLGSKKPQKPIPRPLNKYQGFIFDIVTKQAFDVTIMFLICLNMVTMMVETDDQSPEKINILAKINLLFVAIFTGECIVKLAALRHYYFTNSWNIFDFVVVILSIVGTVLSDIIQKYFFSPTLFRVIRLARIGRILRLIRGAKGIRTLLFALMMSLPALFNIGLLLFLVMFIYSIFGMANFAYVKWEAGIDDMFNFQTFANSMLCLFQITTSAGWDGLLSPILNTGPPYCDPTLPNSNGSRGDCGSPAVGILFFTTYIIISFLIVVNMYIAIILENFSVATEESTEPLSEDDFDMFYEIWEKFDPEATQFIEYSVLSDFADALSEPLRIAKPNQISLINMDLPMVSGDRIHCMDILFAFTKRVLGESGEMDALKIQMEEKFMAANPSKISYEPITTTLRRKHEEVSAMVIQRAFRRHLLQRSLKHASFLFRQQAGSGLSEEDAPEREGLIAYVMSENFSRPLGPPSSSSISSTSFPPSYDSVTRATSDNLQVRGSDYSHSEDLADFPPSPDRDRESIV
SMILES,IC50 [1] [µM],IC50 [2] [µM],IC50 [3] [µM]
"C[C@@H](c1ccccc1)N1CC[C@H](N(C)c2ccc(S(=O)(=O)Nc3cscn3)cc2Cl)C1 [Example 250, 3-chloro-4-(methyl((S)-1-((S)-1-phenylethyl)pyrrolidin-3-yl)amino)-N-(thiazol-4-yl)benzenesulfonamide 2,2,2-trifluoroacetate]",5.5,1.42,6.48
"CN(c1cc(F)c(S(=O)(=O)Nc2cscn2)cc1Cl)[C@H]1CCN(C2(c3ccccc3F)CCC2)C1 [Example 244, (S)-5-chloro-2-fluoro-4-((1-(1-(2-fluorophenyl)cyclobutyl)pyrrolidin-3-yl)(methyl)amino)-N-(thiazol-4-yl)benzenesulfonamide formate]",6.94,1.23,5.08
"Cc1ccccc1CN1CCC(Oc2ccc(S(=O)(=O)Nc3nccs3)cc2Cl)CC1 [Example 91, 3-chloro-4-(1-(2-methylbenzyl)piperidin-4-yloxy)-N-(thiazol-2-yl)benzenesulfonamide]",7.2,1.2,6.94
"O=S(=O)(Nc1cscn1)c1cc(Cl)c(N[C@@H]2CN(Cc3ccccc3)CC23CC3)cc1F [Example 264, (S)-4-((5-benzyl-5-azaspiro[2.4]heptan-7-yl)amino)-5-chloro-2-fluoro-N-(thiazol-4-yl)benzenesulfonamide 2,2,2-trifluoroacetate]",6.01,4.79,13.1
"Cc1cc(S(=O)(=O)Nc2ccon2)c(F)cc1N(C)[C@H]1CCN(Cc2ccccc2)C1 [Example 229, (S)-4-((1-benzylpyrrolidin-3-yl)(methyl)amino)-2-fluoro-N-(isoxazol-3-yl)-5-methylbenzenesulfonamide 2,2,2-trifluoroacetate]",> 30,1.56,> 30
"Cc1cc(S(=O)(=O)Nc2cscn2)c(F)cc1O[C@H]1CCN(Cc2ccccc2)C1 [Example 273, (S)-4-((1-benzylpyrrolidin-3-yl)oxy)-2-fluoro-5-methyl-N-(thiazol-4-yl)benzenesulfonamide 2,2,2-trifluoroacetate]",22.5,1.99,7.1
"Cc1c(N(C)[C@H]2CCN(Cc3ccccc3)C2)cc(F)c(S(=O)(=O)Nc2ccc(F)cn2)c1F [Example 302, (S)-4-((1-benzylpyrrolidin-3-yl)(methyl)amino)-2,6-difluoro-N-(5-fluoropyridin-2-yl)-3-methylbenzenesulfonamide formate]",9.55,1.16,28.9
"CN(c1cc(F)c(S(=O)(=O)Nc2cscn2)cc1Cl)[C@H]1CCN(Cc2cccc(F)c2F)C1 [Example 213, (S)-5-chloro-4-((1-(2,3-difluorobenzyl)pyrrolidin-3-yl)(methyl)amino)-2-fluoro-N-(thiazol-4-yl)benzenesulfonamide]",16.1,3.46,12.8
"Cc1ccc(CN2CC[C@H](N(C)c3cc(F)c(S(=O)(=O)Nc4cscn4)cc3Cl)C2)o1 [Example 204, (S)-5-chloro-2-fluoro-4-(methyl(1-((5-methylfuran-2-yl)methyl)pyrrolidin-3-yl)amino)-N-(thiazol-4-yl)benzenesulfonamide]",> 30,1.78,> 30

# More lines, main results first:
IC50 [1] [µM],IC50 [2] [µM],SMILES,IC50 [3] [µM]
12.6,2.54,"Cc1ccc(CN2CCC(Oc3ccc(S(=O)(=O)Nc4nccs4)cc3Cl)CC2)cc1 [Example 24, 3-chloro-N-(thiazol-2-yl)-4-((1-(4-methylbenzyl)piperidin-4-yl)oxy)benzenesulfonamide 2,2,2-trifluoroacetate]",13.5
10.2,9.16,"COC(=O)c1cccc(CN2CC[C@H](N(C)c3cc(F)c(S(=O)(=O)Nc4cscn4)cc3Cl)C2)c1 [Example 174, methyl (S)-3-((3-((2-chloro-5-fluoro-4-(N-(thiazol-4-yl)sulfamoyl)-phenyl)(methyl)-amino)pyrrolidin-1-yl)methyl)benzoate]",16.2
4.17,2.02,"CN(c1cc(F)c(S(=O)(=O)Nc2cscn2)cc1Cl)[C@H]1CCN(Cc2cccc(OC(F)F)c2)C1 [Example 168, (S)-5-chloro-4-((1-(3-(difluoromethoxy)benzyl)-pyrrolidin-3-yl)(methyl)amino)-2-fluoro-N-(thiazol-4-yl)benzene-sulfonamide formate]",5.89
> 30,0.73,"Cc1ccc(F)c(CN2CC[C@H](N(C)c3cc(F)c(S(=O)(=O)Nc4cscn4)cc3Cl)C2)n1 [Example 314, (S)-5-chloro-2-fluoro-4-((1-((3-fluoro-6-methylpyridin-2-yl)methyl)pyrrolidin-3-yl)(methyl)amino)-N-(thiazol-4-yl)benzenesulfonamide]",> 30
> 30,2.14,"C[C@@H](c1ccccc1)N1CCC(Oc2ccc(S(=O)(=O)Nc3ccncn3)cc2Cl)CC1 [Example 301, (S)-3-chloro-4-((1-(1-phenylethyl)piperidin-4-yl)oxy)-N-(pyrimidin-4-yl)benzenesulfonamide]",> 30
8.75,3.34,"COc1ccc(F)c(CN2CC[C@H](N(C)c3cc(F)c(S(=O)(=O)Nc4cscn4)cc3Cl)C2)c1 [Example 173, (S)-5-chloro-2-fluoro-4-((1-(2-fluoro-5-methoxybenzyl)-pyrrolidin-3-yl)(methyl)amino)-N-(thiazol-4-yl)benzene-sulfonamide 2,2,2-trifluoroacetate]",9.86
7.8,0.298,"Cc1cc(S(=O)(=O)Nc2cscn2)c(F)cc1N(C)[C@H]1CCN(Cc2cccc(F)c2F)C1 [compound 156, (S)-4-((1-(2,3-difluorobenzyl)pyrrolidin-3-yl)(methyl)amino)-2-fluoro-5-methyl-N-(thiazol-4-yl)benzenesulfonamide]",10.3
2.67,1.77,"Cc1ccc(F)c(CN2CC[C@](C)(Nc3ccc(S(=O)(=O)Nc4cscn4)cc3Cl)C2)c1 [Example 266, (S)-3-chloro-4-((1-(2-fluoro-5-methylbenzyl)-3-methylpyrrolidin-3-yl)amino)-N-(thiazol-4-yl)benzenesulfonamide formate]",2.06
6.72,4.8,"Cc1cc(S(=O)(=O)Nc2cscn2)c(F)cc1N(C)[C@H]1CCN(Cc2nc3ccccc3s2)C1 [Example 144, (S)-4-((1-(benzo[d]thiazol-2-ylmethyl)pyrrolidin-3-yl)(methyl)amino)-2-fluoro-5-methyl-N-(thiazol-4-yl)benzenesulfonamide]",8.47
> 30,0.878,"Cc1ccnc(CN2CCC(Oc3ccc(S(=O)(=O)Nc4nccs4)cc3Cl)CC2)c1 [Example 14, 3-chloro-4-((1-((4-methylpyridin-2-yl)methyl)piperidin-4-yl)oxy)-N-(thiazol-2-yl)benzenesulfonamide]",10.7
> 30,0.582,"Cc1cc(S(=O)(=O)Nc2cscn2)c(F)cc1N(C)[C@H]1CCN(Cc2cc(C)n(C)n2)C1 [Example 141, (S)-4-((1-((1,5-dimethyl-1H-pyrazol-3-yl)methyl)pyrrolidin-3-yl)(methyl)amino)-2-fluoro-5-methyl-N-(thiazol-4-yl)benzenesulfonamide]",> 30
